From patent US6803484B2, “Sulfonamide derivatives” (Eli Lilly and Company, priority 2000, dated 2004)

Experiment: Determination of plasma exposure of test compounds in rats (LC/MS of plasma after oral dosing)
Assay type: in vivo, rat (male F-344)
Conditions: for AUC / Cmax / Tmax: male, F-344, rat, rats, oral administration of a 30 mg/kg dose; for AUC: n = 3, read-out: AUC (area under the curve); for Cmax: n = 3, read-out: Cmax (maximum concentration of test compound); for Tmax: n = 3, read-out: tmax (time at which maximum concentration resulted); for concentration at 0.5 h / concentration at 1 h / concentration at 2 h / concentration at 6 h: rat, male F-344 rats, 30 mg/kg oral by gavage, suspension, n = 3
Experimental: General Procedure for Determination of Plasma Exposure of Test Compounds in Rats
Each compound was administered as a suspension in a vehicle consisting of 5% ethanol, 95% of a mixture of 0.5% each Polysorbate 80/sodium carboxymethylcellulose in water. Three male F-344 rats were dosed orally at 30 mg/kg by gavage and blood collected by orbital venapuncture under isoflurane anesthesia at 0.5, 1, and 2 hours after dosing into sodium heparinized containers. The final 6 hour timepoint was collected by cardiac puncture into sodium heparinized containers. Plasma was collected after brief centrifugation and frozen at −70° C. until assay. Plasma samples were assayed by LC/MS using standards prepared by spiking plasma with the compound of interest.

AUC [ng·h/mL]	Cmax [ng/mL]	Tmax [min]	concentration at 0.5 h [ng/mL]	concentration at 1 h [ng/mL]	concentration at 2 h [ng/mL]	concentration at 6 h [ng/mL]	SMILES
1440 ± 227	473	30	473 ± 100	333 ± 53	329 ± 62	67 ± 17	CC(CNS(=O)(=O)C(C)C)c1ccc(NC(=O)c2ccc(F)cc2F)cc1 (centres unmarked) [Compound A, N-[4-(1-methyl-2-{[(methylethyl)sulfonyl]amino}ethyl)phenyl](2,4-difluorophenyl)carboxamide]
5596 ± 14	1490	30	1491 ± 12	1170 ± 134	1040 ± 62	693 ± 136	CC(C)S(=O)(=O)NC[C@H](C)c1ccc(NC(=O)c2cc(F)cc(F)c2)cc1 [Compound B, N-[4-((1R)-1-methyl-2-{[(methylethyl)sulfonyl]amino}ethyl)phenyl](3,5-difluorophenyl)carboxamide]
